Data: patent EP0853484B1, “NOVEL MU OPIOID RECEPTOR LIGANDS: AGONISTS AND ANTAGONISTS” (priority 1995, dated 1996)
Non-standard residues stand in square brackets, D forms with d. No end group written: not given here.

Assays:
δ receptors = biological target: T1, δ receptors (Rattus norvegicus, UniProt P33533); experiment: Radioreceptor assay selective for δ receptors ([3H]-naltrindole, rat brain homogenates); type: binding; conditions: ratio of δ IC50 to µ IC50
T1 construct: performed using rat brain homogenates as above; tissue Harlan Bioproducts for Science; host or cells: rat brain crude membrane homogenate
Method: Radioreceptor assays selective for δ receptors were performed using rat brain homogenates as above and [^3H]-naltrindole (0.5 nM, specific activity 34.7 Ci/mmol) as radioligand in Tris buffer containing 100 µM phenylmethylsulfonyl fluoride (PMSF), 5 mM MgCl2 and 1 mg/ml bovine serum albumin (BSA), pH 7.4. Samples were incubated for 2.5 hr. Standard curves were prepared using 0.10-3200 nM [^3H]-D-Pen2, Pen5]-enkephalin ([^3H]-DPDPE).

κ receptors = biological target: T2, κ receptors (Cavia porcellus, UniProt P41144); experiment: Radioreceptor assay selective for κ receptors ([3H]-U69,593, guinea pig brain homogenates); type: binding; conditions: ratio of κ IC50 to µ IC50
T2 construct: tissue homogenates prepared from guinea pig brains (cortex and cerebellum); tissue Harlan Bioproducts for Science; host or cells: guinea pig brain (cortex and cerebellum) homogenate
Method: Assays selective for κ receptors were carried out using [^3H]-U69,593 (3 nM, specific activity 62 Ci/mmol) as the radioligand and tissue homogenates prepared from guinea pig brains (cortex and cerebellum) using Tris buffer containing 100 µM PMSF, 5 mM MgCl2 and 1 mg/ml BSA, pH 7.4. Sample tubes were incubated for 2.5 hr.

MU RECEPTOR = experiment: Agonist or antagonist activity by either the adenylyl cyclase assay or the GPI assay (not stated which)

T2 sequence (P41144 whole entry): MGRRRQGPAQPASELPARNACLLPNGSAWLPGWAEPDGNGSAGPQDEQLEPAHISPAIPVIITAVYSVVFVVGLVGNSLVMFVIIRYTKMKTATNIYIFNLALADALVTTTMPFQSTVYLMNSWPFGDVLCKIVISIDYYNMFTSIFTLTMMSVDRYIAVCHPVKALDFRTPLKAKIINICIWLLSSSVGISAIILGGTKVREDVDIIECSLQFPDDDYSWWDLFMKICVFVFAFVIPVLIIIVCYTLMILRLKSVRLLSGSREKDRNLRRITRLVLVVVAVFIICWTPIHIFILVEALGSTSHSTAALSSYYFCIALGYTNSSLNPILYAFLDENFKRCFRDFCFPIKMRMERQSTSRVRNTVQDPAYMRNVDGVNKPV
T1 sequence (P33533 whole entry): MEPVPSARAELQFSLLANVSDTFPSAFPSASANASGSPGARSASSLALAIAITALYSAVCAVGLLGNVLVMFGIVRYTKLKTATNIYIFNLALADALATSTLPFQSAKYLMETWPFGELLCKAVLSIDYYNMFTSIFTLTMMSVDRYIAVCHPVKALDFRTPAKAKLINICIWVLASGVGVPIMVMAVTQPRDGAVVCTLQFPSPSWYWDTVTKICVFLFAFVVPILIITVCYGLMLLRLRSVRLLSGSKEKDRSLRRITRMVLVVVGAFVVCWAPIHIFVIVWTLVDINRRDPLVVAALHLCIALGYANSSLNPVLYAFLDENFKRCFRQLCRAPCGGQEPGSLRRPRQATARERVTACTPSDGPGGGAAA

[D-Ala^2,MePhe^4,Gly-ol^5]enkephalin [DAMGO]
δ/µ (δ receptors): 253 | κ/µ (κ receptors): 844

[dI][dM][dT][dW]G[dP]-NH2 [SEQ ID NO. 130]
AGONIST OR ANTAGONIST (MU RECEPTOR): Agonist
